Results reported in patent US8765730B2 (Hoffmann-La Roche Inc, priority 2010, dated 2014).
Read-outs that look alike come from different tables or passages of the source.

Biological target: T1, human GPBAR1 receptor (Homo sapiens, UniProt Q8TDU6)
T1 construct: expressed in transfected cells
T1 sequence (Q8TDU6 1-330): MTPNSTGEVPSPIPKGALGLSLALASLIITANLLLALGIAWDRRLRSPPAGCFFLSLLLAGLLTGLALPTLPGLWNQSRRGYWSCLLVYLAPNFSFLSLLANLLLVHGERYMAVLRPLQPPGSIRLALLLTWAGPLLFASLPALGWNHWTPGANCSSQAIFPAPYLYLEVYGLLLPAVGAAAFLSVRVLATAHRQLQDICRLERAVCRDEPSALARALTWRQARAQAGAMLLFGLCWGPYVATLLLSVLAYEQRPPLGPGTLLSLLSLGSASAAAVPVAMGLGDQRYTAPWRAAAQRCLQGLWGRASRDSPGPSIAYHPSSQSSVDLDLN
Assay: functional cAMP assay in CHO-dhfr(minus) cells expressing human GPBAR1 receptors
Assay type: cell-based
Details: 30 min at 30° C.
How it was run: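 Agonist cAMP read-out: stable GPBAR1 CHO-dhfr− clone, 30 min compound exposure at 30° C following 30 min IBMX (1 mM) preincubation in Krebs Ringer bicarbonate. Time-resolved energy-transfer detection gives EC50; parental CHO cells serve as counter-screen.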

[1] = human EC50, functional cAMP assay
[2] = functional cAMP assay, read-out: human EC50

Compound | EC50 [1] [nM] | EC50 [2] [nM]
Cc1ccccc1C(C/C(=N\O)c1ccc(=O)n(C)c1)c1ccc(C(=O)NC(C)(C)CO)cc1 (stereo not drawn) [Example 303, (E)-N-(1-Hydroxy-2-methylpropan-2-yl)-4-(3-(hydroxyimino)-3-(1-methyl-6-oxo-1,6-dihydropyridin-3-yl)-1-o-tolylpropyl)benzamide] | 816 | 
Cc1ccccc1C(C/C(=N\O)c1ccncc1)c1ccc(-c2cncnc2)cc1 (single isomer, unassigned; (-)) [Example 36, (−)-(E)-1-pyridin-4-yl-3-(4-pyrimidin-5-yl-phenyl)-3-o-tolyl-propan-1-one oxime] | 11 | 
Cc1cc(Cl)ccc1C(C/C(=N\O)c1ccc(=O)n(C)c1)c1ccc(Br)cc1 (stereo not drawn) [Example 226, 5-{3-(4-Bromo-phenyl)-3-(4-chloro-2-methyl-phenyl)-1-[(E)-hydroxyimino]-propyl}-1-methyl-1H-pyridin-2-one] | 38 | 
ON=C(CC(c1ccccc1)c1ccc(Br)cc1)c1ccnc(Cl)c1 (racemic) [Example 46, 3-(4-Bromo-phenyl)-1-(2-chloro-pyridin-4-yl)-3-phenyl-propan-1-one oxime] | 1360 | 
Cc1cc(Cl)ccc1C(C/C(=N\O)c1ccc(=O)n(C)c1)c1ccc(Oc2cccc(C(=O)O)c2)cc1 (stereo not drawn) [Example 346, 3-{4-[1-(4-Chloro-2-methyl-phenyl)-3-[(E)-hydroxyimino]-3-(1-methyl-6-oxo-1,6-dihydro-pyridin-3-yl)-propyl]-phenoxy}-benzoic acid] | 42 | 
Cc1cc(Cl)ccc1C(C/C(=N\O)c1ccc(=O)n(C)c1)c1ccc(-c2ccc(C(=O)NCC(=O)O)cc2)cc1 (stereo not drawn) [Example 229, (E)-2-(4′-(1-(4-chloro-2-methylphenyl)-3-(hydroxyimino)-3-(1-methyl-6-oxo-1,6-dihydropyridin-3-yl)propyl)biphenyl-4-ylcarboxamido)acetic acid] | 22 | 
Cc1cc(/C(CC(c2ccc(C(=O)N3CCN(S(C)(=O)=O)CC3)cc2)c2ccc(F)cc2F)=N/O)ccn1 (stereo not drawn) [Example 439, 3-(2,4-Difluoro-phenyl)-3-[4-(4-methanesulfonyl-piperazine-1-carbonyl)-phenyl]-1-(2-methyl-pyridin-4-yl)-propan-1-one oxime] | 81 | 
Cc1cc(Cl)ccc1C(C/C(=N\O)c1ccc(=O)n(C)c1)c1ccc(N2CCCC2=O)cc1 (stereo not drawn) [Example 355, 5-{3-(4-Chloro-2-methyl-phenyl)-1-[(E)-hydroxyimino]-3-[4-(2-oxo-pyrrolidin-1-yl)-phenyl]-propyl}-1-methyl-1H-pyridin-2-one] | 110 | 
Cc1ccccc1[C@H](C/C(=N\O)c1ccc(=O)n(C)c1)c1ccc(C2CCNCC2)cc1 [Example 507, (R,E)-5-(1-(Hydroxyimino)-3-(4-(piperidin-4-yl)phenyl)-3-o-tolylpropyl)-1-methylpyridin-2(1H)-one] | 2370 | 
Cc1ccccc1C(C/C(=N\O)c1cc(Cl)ccc1Cl)c1ccc(Br)cc1 (single isomer, unassigned; (-)) [Example 51, (−)-(E)-3-(4-bromo-phenyl)-1-(2,5-dichloro-phenyl)-3-o-tolyl-propan-1-one oxime] | 933 | 
Cc1ccccc1C(CC(=NO)c1cc(F)ncc1Cl)c1ccc(Br)cc1 (racemic) [Example 121, 3-(4-Bromo-phenyl)-1-(5-chloro-2-fluoro-pyridin-4-yl)-3-o-tolyl-propan-1-one oxime] | 24 | 
Cc1cc(/C(C[C@H](c2ccc(C(=O)N[C@H]3CC[C@H](C(=O)O)CC3)cc2)c2ccccc2C)=N/O)ccn1 [Example 276, Trans-4-{4-[(R)-3-[(E)-Hydroxyimino]-3-(2-methyl-pyridin-4-yl)-1-o-tolyl-propyl]-benzoylamino}-cyclohexanecarboxylic acid] | 59 | 
Cn1cc(/C(CC(c2ccc(S(C)(=O)=O)cc2)c2cc(Cl)ccc2Cl)=N/O)ccc1=O (stereo not drawn) [Example 350, (E)-5-(3-(2,5-Dichlorophenyl)-1-(hydroxyimino)-3-(4-(methylsulfonyl)phenyl)propyl)-1-methylpyridin-2(1H)-one] | 129 | 
Cc1cc(/C(C[C@H](c2ccc(N[C@H]3C[C@H](C(=O)O)C3)cc2)c2ccccc2C)=N/O)ccn1 [Example 356, 3-{4-[(R)-3-[(E)-Hydroxyimino]-3-(2-methyl-pyridin-4-yl)-1-o-tolyl-propyl]-phenylamino}-cyclobutanecarboxylic acid] | 90 | 
Cc1cc(Cl)ccc1[C@H](C/C(=N\O)c1cc[n+]([O-])c(C)c1)c1ccc(Br)cc1 [Example 384, (R,E)-4-(3-(4-Bromophenyl)-3-(4-chloro-2-methylphenyl)-1-(hydroxyimino)propyl)-2-methylpyridine 1-oxide] | 168 | 
Cc1cc(/C(C[C@H](c2ccc(C3CCN(S(C)(=O)=O)CC3)cc2)c2ccccc2C)=N/O)ccn1 [Example 379, (R,E)-1-(2-methylpyridin-4-yl)-3-(4-(1-(methylsulfonyl)piperidin-4-yl)phenyl)-3-o-tolylpropan-1-one oxime] | 14 | 
Cc1cc(/C(CC(c2ccc(C(=O)NCCO)cc2)c2ccc(F)cc2F)=N/O)ccn1 (stereo not drawn) [Example 433, 4-[1-(2,4-Difluoro-phenyl)-3-[(E)-hydroxyimino]-3-(2-methyl-pyridin-4-yl)-propyl]-N-(2-hydroxy-ethyl)-benzamide] | 55 | 

Compound | EC50 [1] [nM] | EC50 [2] [nM]
Cc1cc(/C(C[C@H](c2ccc(C(=O)NCCO)cc2)c2ccccc2C)=N/O)ccn1 [Example 273, N-(2-Hydroxy-ethyl)-4-[(R)-3-[(E)-hydroxyimino]-3-(2-methyl-pyridin-4-yl)-1-o-tolyl-propyl]-benzamide] |  | 31
COC(=O)c1ccc(-c2cccc(C(CC(=NO)c3ccnc(C)c3)c3ccccc3C)c2)cc1F (racemic) [Example 100, 3-Fluoro-3′-[3-[hydroxyimino]-3-(2-methyl-pyridin-4-yl)-1-o-tolyl-propyl]-biphenyl-4-carboxylic acid methyl ester] | 514 | 
Cc1cc(/C(C[C@H](c2ccc(N[C@H]3C[C@@H](C(=O)O)C3)cc2)c2ccccc2C)=N/O)ccn1 [Example 300, 3-{4-[(R)-3-[(E)-Hydroxyimino]-3-(2-methyl-pyridin-4-yl)-1-o-tolyl-propyl]-phenylamino}-cyclobutanecarboxylic acid] | 55 | 
CCOC(=O)c1cccc(-c2ccc(C(CC(=NO)c3ccnc(C)c3)c3ccccc3C)cc2)c1 (racemic) [Example 78, 4′-[3-[Hydroxyimino]-3-(2-methyl-pyridin-4-yl)-1-o-tolyl-propyl]-biphenyl-3-carboxylic acid ethyl ester] | 381 | 
COc1ccc(C2(C/C(=N/O)c3ccnc(C)c3)CCCCC2)cc1 [Example 159, (Z)-2-[1-(4-Methoxy-phenyl)-cyclohexyl]-1-(2-methyl-pyridin-4-yl)-ethanone oxime] | 5560 | 
Cc1cc(C(=NO)C(Cc2ccc(Br)cc2)c2ccccc2)cc(C)n1 (racemic) [Example 45, 3-(4-Bromo-phenyl)-1-(2,6-dimethyl-pyridin-4-yl)-2-phenyl-propan-1-one oxime] | 1160 | 
Cc1cc(/C(C[C@H](c2ccc(C3CN(S(N)(=O)=O)C3)cc2)c2ccccc2C)=N/O)ccn1 [Example 485, (R,E)-3-(4-(3-(Hydroxyimino)-3-(2-methylpyridin-4-yl)-1-o-tolylpropyl)phenyl)azetidine-1-sulfonamide] | 21 | 
O/N=C(/CC(O)(c1ccccc1)c1ccccc1)c1ccncc1 [Example 155, (Z)-3-Hydroxy-3,3-diphenyl-1-pyridin-4-yl-propan-1-one oxime] |  | 8620
Cc1cc(/C(C[C@H](c2ccc(CC(=O)NCCO)cc2)c2ccccc2C)=N/O)ccn1 [Example 289, N-(2-Hydroxy-ethyl)-2-{4-[(R)-3-[(E)-hydroxyimino]-3-(2-methyl-pyridin-4-yl)-1-o-tolyl-propyl]-phenyl}-acetamide] | 23 | 
Cc1cc(C(CC(c2ccc(-c3ccc(C(=O)O)c(F)c3)cc2)c2ccccc2C)=NO)ccn1 (racemic) [Example 112, 3-Fluoro-4′-[3-[hydroxyimino]-3-(2-methyl-pyridin-4-yl)-1-o-tolyl-propyl]-biphenyl-4-carboxylic acid] | 16 | 
O/N=C(\CC(c1ccccc1)c1ccccc1)c1cc(Cl)nc(Cl)c1 [Example 72, (E)-1-(2,6-Dichloro-pyridin-4-yl)-3,3-diphenyl-propan-1-one oxime] | 221 | 
O=C(O)c1cccc(C(C/C(=N\O)c2ccncc2)c2ccccc2)c1 (stereo not drawn) [Example 69, 3-{3-[(E)-Hydroxyimino]-1-phenyl-3-pyridin-4-yl-propyl}-benzoic acid] | 1890 | 
O/N=C(/CC(c1ccccc1)c1ccccc1)c1cc(Cl)nc(Cl)c1 [Example 73, (Z)-1-(2,6-dichloro-pyridin-4-yl)-3,3-diphenyl-propan-1-one oxime] | 4430 | 
Cn1cc(/C(CC(c2ccc(S(C)(=O)=O)cc2)c2cc(Cl)cc(Cl)c2)=N/O)ccc1=O (stereo not drawn) [Example 352, (E)-5-(3-(3,5-Dichlorophenyl)-1-(hydroxyimino)-3-(4-(methylsulfonyl)phenyl)propyl)-1-methylpyridin-2(1H)-one] | 81 | 
Cn1cc(/C(CC(c2ccc(S(C)(=O)=O)cc2)c2cc(F)cc(F)c2)=N/O)ccc1=O (stereo not drawn) [Example 351, (E)-5-(3-(3,5-Difluorophenyl)-1-(hydroxyimino)-3-(4-(methylsulfonyl)phenyl)propyl)-1-methylpyridin-2(1H)-one] | 452 | 
Cc1ccccc1C(C/C(=N\O)c1ccc(=O)n(C)c1)c1ccc(C(=O)N[C@@H](CO)C(C)C)cc1 (single isomer, unassigned) [Example 306] | 511 | 
